The text below walks through data of patent publication US11124536B2, “Uridine nucleoside derivatives, compositions and methods of use” (Tufts University, priority 2013, dated 2021).

One experiment deals with T1, P2Y6 receptor (Homo sapiens, UniProt Q15077).
T1 construct: expressed in transfected cells; host or cells: 1321N1 human astrocytoma cells
Description: Activation of P2Y6 receptor: receptor-induced Ca2+ changes with fluo-4. Type of experiment: cell-based. As to the method:
Synthetic ligands were tested for activation of P2Y6 receptor by measuring receptor induced Ca^2+ changes with the fluorescent Ca^2+ indicator fluo-4. 1321N1 human astrocytoma cell lines either expressing P2Y2, P2Y4 or P2Y6 receptors were plated into 24-well plates. Two days after plating, fluorometric measurements were made and responses of cells to a serial dilution of ligands were determined. P2Y6 receptor mediated Ca^2+ fluorescent change was determined by normalized accumulation of fluorescent change of 3 timepoints after ligand administration subtracted by value from ACSF control. Changes in fluorescent intensity were plotted corresponding to ligand concention in GraphPad. Dose-response curve and EC50 for each ligand was estimated using nonlinear curve fit and Sigmoidal dose-response analysis. […]
Synthetic ligands were tested for activation of P2Y6 receptor by measuring receptor induced Ca^2+ changes with the fluorescent Ca^2+ indicator fluo-4, and results are shown in FIG. 10(A)-(K). […] Two days after plating, fluorometric measurements were made and responses of cells to a serial dilution of ligands were determined. P2Y6 receptor mediated Ca^2+ fluorescent change was determined by normalized accumulation of fluorescent change of 3 timepoints after ligand administration subtracted by value from ACSF control. […]

The next experiment concerns human THP-1 cells. Description: Cytokine release from THP-1 cells into culture medium (multiplex cytokine analysis). Type of experiment: cell-based. On the procedure: THP-1 cells, a human cell line derived from monocytes, were treated in vitro with vehicle, the P2Y6 receptor antagonist MRS 2578, or compound 5, singly or in combination. THP-1 cells were seeded in 24 well plates at a density of 4×10^5 cells/well in culture medium for 24 hours. Thereafter, vehicle, compound 5, or MRS 2578 (singly or in combination) were added to the cultures for 24 hours. Subsequently the culture medium was aspirated and subjected to multiplex cytokine analysis. Data are presented as means+/−sem. MRS 2578 has a molecular weight of about 472 and is also described using CAS number 711019-86-2.

Experiment [1] has as its system PSAPP mice. Description: Two-photon in vivo imaging of methoxyX04-labeled amyloid plaques in barrel cortex. The note with it: UDP vs ACSF. From the text:
In this study, PSAPP mice were anesthetized using isoflurane and a thin-skull preparation was used to minimize the surface damage. Amyloid plaques were visualized with methoxyX04 labeling and blood plasma was labeled with Rhodamine dextran to facilitate re-localization of the same imaging area. Stack images were obtained using a two-photon system (Prairie Technologies) with excitation at 850 nm. The emission was detected by external photomultiplier tubes (525/70; DLCP 575; 607/45 nm).
Animals were anesthetized and immobilized in a stereotaxic frame. For each injection, 1 μl of 10 mM UDP or other suitable compounds in artificial cerebrospinal fluid (ACSF) as the vehicle were injected intraventricularly using the following coordinates: AP 0.2 mm, ML 1 mm, and DV 2.2 mm.
To evaluate the effect of UDP on plaque burden, two-photon microscopy was used to assess the amyloid plaques in the barrel cortex in living PSAPP mice. Amyloid plaques were stained by systemically administered methoxy-X04. One day prior to imaging, PSAPP mice were injected with methoxyX04 to label the amyloid plaques. On the imaging day, to facilitate the re-location of the same imaging area, blood plasma was labeled with Rhodamine dextran. Images were obtained from the same start- and end-point to ensure the same image volume. […]

Experiment [2] relates to PSAPP mice. Description: Postmortem immunohistochemistry of amyloid beta plaque load in cortex and hippocampus. Type of experiment: in vivo. On the procedure:
Mice were perfused transcardially with 4% paraformaldehyde and 40 μm Coronal sections were collected. Sections were sequentially incubated in 0.3% H2O2 for 10 minutes, blocking solution for 2 hrs, blocking solution containing the primary antibody (rabbit anti-beta1-42; rabbit anti-beta1-40, from Chemicon International and rat anti-CD45) for 48 hours at 4° C., and blocking solution containing biotinylated antibody or fluorescently-labeled antibody for 2 hours at room temperature. Sections were visualized in a bright field microscope or a confocal microscope, and the optical density was obtained using MetaMorph software.
To generate these graphs showing plaque load, mice were euthanized, brain sections cut and antibodies directed against Aβ 42 were used to disclose Aβ plaques. Images were acquired digitally and an algorithm was applied to threshold the image so that plaques were isolated from the background. The algorithm then calculated the percent area of the field of view occupied by the plaques.
Brain samples were collected for Abeta analysis with immunostaining. Brains samples were collected after transcardial perfusion with phosphate buffer and 4% paraformaldehyde. Floating brain sections (40 micron) were collected using a microtome. Immunostaining for Aβ40 and Aβ42 were performed according to previously established protocol. Images with DAB staining were collected with brightfield microscopy and analyzed with ImageJ Macro. All data analysis and statistics were performed in GraphPad Prism 6.0.

Experiment [3] concerns PSAPP mice. Description: Contextual fear conditioning test (freezing %). It counts as in vivo. As to the method: On day one, animals were trained in a fear conditioning apparatus for a total of 7 minutes with a two-pairing paradigm of cue and mild foot shock (a 30-s acoustic-conditioned stimulus, 80 dB; a 2-s shock stimulus, 0.5 mA). To evaluate contextual fear learning, the animals were returned to the training context 24 hours post-training, and freezing behavior was scored for 5 minutes. Freezing behavior was monitored by MotorMonitor (Hamilton Kinder) and scored every 5 seconds.
This represents a decrease in the cognitive impairment observed in the untreated mice.

Experiment [4] deals with PSAPP mice. Description: Hippocampal long-term potentiation (LTP) recording, CA1. It counts as in vivo. On the procedure:
Hippocampal slices (350 μm thick) were prepared from 6-month-old PSAPP mice. Baseline responses were obtained every 10 seconds and Input-output (I/O) curves, paired-pulse modification and LTP were successively measured. The stimulation intensity was set to a level that gives a value of 30% of the maximum obtained. LTP were induced by high frequency stimulation (HFS, 100 pulses at 100 Hz, four times) or by theta-burst stimulation (TBS, 10 bursts at 5 Hz, repeated 10 times in 15 s intervals).
Accumulated evidence has shown that amyloid peptides naturally secreted or isolated from Alzheimer's brains impair synaptic plasticity, especially hippocampal long-term potentiation (Walsh et al., 2002). Therefore, we further performed LTP recordings in PASPP mice and investigated whether P2Y6 receptor-mediated plaque clearance affects synaptic plasticity. […] First, it was observed that LTP at the schaffer collateral synapse within the CA1 region was depressed in PSAPP mice, as compared with littermates (FIG. 8(A)).

Entries after “also recorded” stand apart in the source; their conditions may differ.

T1 sequence (Q15077 whole entry): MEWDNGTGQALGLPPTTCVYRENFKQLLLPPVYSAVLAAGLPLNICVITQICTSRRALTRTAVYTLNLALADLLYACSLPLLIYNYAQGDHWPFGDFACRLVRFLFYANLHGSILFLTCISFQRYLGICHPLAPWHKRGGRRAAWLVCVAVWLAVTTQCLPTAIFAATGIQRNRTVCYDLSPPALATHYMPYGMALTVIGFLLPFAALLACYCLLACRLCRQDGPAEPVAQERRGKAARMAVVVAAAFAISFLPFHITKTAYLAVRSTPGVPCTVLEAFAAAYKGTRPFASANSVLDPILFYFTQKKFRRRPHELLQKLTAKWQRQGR

As to `S=C=Nc1cccc(NC(=S)NCCCCNC(=S)Nc2cccc(N=C=S)c2)c1` [MRS 2578], the “effect of antagonist on Ca2+ signals elevated by the sodium salt of the diphosphate derivative of compound 5” value on P2Y6 receptor (P2Y6 receptor expressing 1321N1 cells) is given as “attenuated”. The “release of fractalkine, PDGF-BB, and IL-7 (concentration in culture medium)” value in the experiment on human THP-1 cells (24 hours treatment vs vehicle, FIG. 25) is given as “increased”. The “release of IL-7 from human THP-1 cells” value with human THP-1 cells (MRS 2578 alone, 24 hours, FIG. 26) is given as “increased”. In addition, the “effect of co-treatment on the decrease of IL-7/cytokine release caused by compound 5” value in the experiment with human THP-1 cells (compound 5 plus MRS 2578, FIG. 26) was “blocked; also recorded: abrogated”.
Consider `O=c1ccn([C@@H]2O[C@H](COP(=O)(O)OP(=O)(O)O)[C@@H](O)[C@H]2O)c(=O)n1Cc1noc2ccccc12`, for which the “elevating Ca2+ levels in cells expressing P2Y6 receptors” value on P2Y6 receptor (1321N1 human astrocytoma cells expressing P2Y6) was “only effective”.
For the compound `O=c1ccn([C@@H]2O[C@H](COP(=O)(O)OP(=O)(O)O)[C@@H](O)[C@H]2O)c(=O)[nH]1` [UDP, uridine diphosphate], the “day 4/day 1 ratios of plaque load” value in the experiment on PSAPP mice [1] (FIG. 2D) is given as “significant reductions”. Further, in the experiment with PSAPP mice [1] (FIG. 2E), the “number of plaques (day 4/day 1 ratios)” value is “significant reductions”. In addition, in the experiment with PSAPP mice [2] (acute UDP i.c.v., P<0.01), the “decrease in plaque load in the cortex, β1-42 antibody” value stood at 48%. For the same compound, in the experiment with PSAPP mice [2] (acute UDP i.c.v., P<0.05), the “decrease in plaque load in the hippocampus, β1-42 antibody” value turned out to be 47%. Besides, in the experiment on PSAPP mice [2] (acute UDP i.c.v., p<0.01), the “decrease in plaque load in the hippocampus, β1-40 antibody” value is on record as 62%. Further, the “decrease in plaque load in the cortex, β1-40 antibody” value in the experiment with PSAPP mice [2] (acute UDP i.c.v., p<0.05) was determined as 60%. The “freezing behavior compared to ACSF treatment” value with PSAPP mice [3] (UDP-treatment 3 days prior to the test, FIG. 7C) is “significantly improved”. Further, the “LTP deficit at schaffer collateral synapse, CA1” value in the experiment with PSAPP mice [4] (acute UDP vs ACSF, HFS, FIG. 8B) was “reversed”. The “field excitatory postsynaptic potential (fEPSP), last 15 min potentiation” value in the experiment on PSAPP mice [4] (acute UDP, comparable to littermates, FIG. 8C) is “significant increase”.
In the case of `O=C(Cn1c(=O)ccn([C@@H]2O[C@H](COP(=O)(O)OP(=O)(O)O)[C@@H](O)[C@H]2O)c1=O)c1ccccc1` [3-phenacyl-UDP, reference compound], in the experiment with PSAPP mice [2] (1 mg/kg, one week of daily treatment), the “effects on the efficacy endpoint at the higher dose” value is given as “smaller effects”. The “β1-40 staining after treatment stopped” value with PSAPP mice [2] (6 consecutive days i.p. then stopped for 2 weeks (6+2 weeks group), level still lower than saline vehicle) is on record as “rebounded”. The “immunoreactivity of β1-40 in cortex” value in the experiment with PSAPP mice [2] (i.p. for 4 and 6 consecutive days, FIG. 6A) is reported as “significantly decreased”. For the same compound, the “immunoreactivity of β1-40 in hippocampus” value in the experiment with PSAPP mice [2] (i.p. for 4 and 6 consecutive days, FIG. 6B) was “significantly decreased”. Further, in the experiment on PSAPP mice [3] (chronic injection, two different doses), the “total freezing percentage in context test” value is given as “increased”. Also, the “memory deficit (contextual fear conditioning) compared to vehicle” value with PSAPP mice [3] (one week treatment with 1 μg/kg, FIG. 9C) is reported as “rescued the memory deficit”.
